Measured values: publication PMC3621832, “Non-Complexed Four Cascade Enzyme Mixture: Simple Purification and Synergetic Co-stabilization” (PLoS ONE, 2013)

How the values were obtained:
Assay type in all cases: biochemical
[1] = target: T1, fructose bisphosphate aldolase (ALD) (Thermotoga maritima, UniProt Q9WYB0); assay: coupled cascade with TIM, FBP and PGI; G6P by enzymatic glucose reagent
T1 construct: gene TM_0273; heat and ammonium sulfate purification
T1 sequence (Q9WYB0 1-315): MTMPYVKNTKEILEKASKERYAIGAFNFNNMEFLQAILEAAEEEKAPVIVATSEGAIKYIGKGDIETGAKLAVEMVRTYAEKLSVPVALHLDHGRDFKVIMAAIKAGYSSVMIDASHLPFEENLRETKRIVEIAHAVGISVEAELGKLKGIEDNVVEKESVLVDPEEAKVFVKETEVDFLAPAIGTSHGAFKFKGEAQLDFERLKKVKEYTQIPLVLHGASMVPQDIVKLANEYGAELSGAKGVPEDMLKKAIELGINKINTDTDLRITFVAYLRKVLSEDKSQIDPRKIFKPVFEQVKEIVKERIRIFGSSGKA

[2] = target: T2, fructose bisphosphatase (FBP) (Thermotoga maritima, UniProt O33832); assay: FBP activity assay as described elsewhere; also in four-enzyme cascade
T2 construct: gene suhB; recombinant, E. coli, plasmid pCIF (CBM-intein-FBP), tag-free after intein self-cleavage
T2 sequence (O33832 1-256): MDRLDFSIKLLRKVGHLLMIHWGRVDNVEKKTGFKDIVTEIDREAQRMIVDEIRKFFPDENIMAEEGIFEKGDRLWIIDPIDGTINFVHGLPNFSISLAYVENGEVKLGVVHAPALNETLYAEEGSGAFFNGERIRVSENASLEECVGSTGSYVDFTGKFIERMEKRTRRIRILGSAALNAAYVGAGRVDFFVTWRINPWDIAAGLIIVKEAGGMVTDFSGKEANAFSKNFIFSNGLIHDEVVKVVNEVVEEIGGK

[3] = target: T3, phosphoglucose isomerase (PGI) (Acetivibrio thermocellus, UniProt A3DBX9); assay: G6P formation by enzymatic glucose kit; conditions: 100 mM HEPES pH 7.5, 10 mM MgCl2, 0.5 mM MnCl2, 60°C
T3 construct: recombinant, E. coli, plasmid pCIP (CBM-intein-PGI), tag-free after intein self-cleavage
T3 sequence (A3DBX9 1-448): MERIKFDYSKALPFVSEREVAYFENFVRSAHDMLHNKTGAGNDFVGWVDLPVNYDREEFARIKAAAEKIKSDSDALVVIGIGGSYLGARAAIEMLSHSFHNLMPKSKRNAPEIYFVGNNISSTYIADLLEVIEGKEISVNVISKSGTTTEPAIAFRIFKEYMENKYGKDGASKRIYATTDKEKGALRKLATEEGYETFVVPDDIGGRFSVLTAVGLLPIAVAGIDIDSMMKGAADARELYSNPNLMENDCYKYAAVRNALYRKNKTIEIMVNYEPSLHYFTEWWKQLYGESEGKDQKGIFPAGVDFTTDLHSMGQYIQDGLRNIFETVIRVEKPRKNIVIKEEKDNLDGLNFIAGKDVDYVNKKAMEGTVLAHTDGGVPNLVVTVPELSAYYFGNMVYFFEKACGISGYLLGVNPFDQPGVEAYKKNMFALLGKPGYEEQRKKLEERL

SMILES: O=C(CO)COP(=O)(O)O [dihydroxyacetone phosphate]
- coupled cascade with TIM, FBP and PGI; G6P by enzymatic glucose reagent ([1]; co-substrate G3P): G3P and DHAP were substrates and F16P was the product

SMILES: O=P(O)(O)OC[C@H]1OC(O)(COP(=O)(O)O)[C@@H](O)[C@@H]1O (stereo partly shown) [fructose 1,6-bisphosphate]
- FBP activity assay as described elsewhere; also in four-enzyme cascade [2]: FBP catalyses the irreversible conversion of F16P to fructose 6-phosphate (F6P)

SMILES: O=P(O)(O)OC[C@H]1OC(O)(CO)[C@@H](O)[C@@H]1O (stereo partly shown) [fructose 6-phosphate]
- G6P formation by enzymatic glucose kit [3]: PGI reversibly converts fructose-6-phosphate (F6P) and glucose-6-phosphate (G6P)

SMILES: O=C[C@H](O)COP(=O)(O)O [glyceraldehyde-3-phosphate]
- coupled cascade with TIM, FBP and PGI; G6P by enzymatic glucose reagent ([1]; co-substrate DHAP): G3P and DHAP were substrates and F16P was the product
